Experimental data reported in US20230075856A1, “CYCLIC SULFAMIDE COMPOUNDS FOR TREATMENT OF HBV” (Assembly Biosciences, Inc., priority 2018, published 2023).
Like-named read-outs stand apart in the source and are kept apart here.

Tested on: HBV viral load production from HepAD38 cells
Assay: Viral production from HepAD38 cells: viral load in supernatant by qPCR of the HBV core sequence
Type: cell-based
Settings: 5 days incubation, qPCR of supernatant HBV DNA vs DMSO control, read-out: viral load lowering EC50 (Activity)
Outline: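 Viral load was measured by qPCR of the HBV core region in supernatant, quantified against DNA standards and compared with DMSO wells. Cells (50,000/well, tetracycline withdrawn, 2% FBS) received compound from 10 μM final for 5 days; EC50 from four-parameter nonlinear regression.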

[1] = Hepatitis B virus, HePAD38, 120 h

Compound	EC50 [1] [nM]	EC50 [nM]
Cc1nc(-c2ccc(F)cc2F)sc1CNC(=O)C1CC(C(=O)Nc2ccc(F)c(Cl)c2)N(C)S(=O)(=O)N1 (single isomer, unassigned) [1083-ISOMER-A, N3-(3-chloro-4-fluoro-phenyl)-N5-[[2-(2,4-difluorophenyl)-4-methyl-thiazol-5-yl]methyl]-2-methyl-1,1-dioxo-1,2,6-thiadiazinane-3,5-dicarboxamide]	< 50	–
CN1C(C(=O)Nc2ccc(F)c(Cl)c2)CC(C(=O)NCc2cnc(-c3ccc(F)cc3)s2)NS1(=O)=O (single isomer, unassigned) [Compound 916-ISOMER-B, N3-(3-chloro-4-fluoro-phenyl)-N5-[[2-(4-fluorophenyl)thiazol-5-yl]methyl]-2-methyl-1,1-dioxo-1,2,6-thiadiazinane-3,5-dicarboxamide]	–	< 50
CC(C)OC(=O)N1CCC(NC(=O)C2CC(C(=O)Nc3ccc(F)c(Cl)c3)N(C)S(=O)(=O)N2)CC1 (single isomer, unassigned) [Compound 766-ISOMER-B, isopropyl 4-[[5-[(3-chloro-4-fluoro-phenyl)carbamoyl]-6-methyl-1,1-dioxo-1,2,6-thiadiazinane-3-carbonyl]amino]piperidine-1-carboxylate]	–	50 to 100
CN1C(C(=O)Nc2ccc(F)c(Cl)c2)CC(C(=O)NCc2ncc(-c3ccccc3)s2)NS1(=O)=O (single isomer, unassigned) [Compound 931-ISOMER-A, N3-(3-chloro-4-fluoro-phenyl)-2-methyl-1,1-dioxo-N5-[(5-phenylthiazol-2-yl)methyl]-1,2,6-thiadiazinane-3,5-dicarboxamide]	100 to 10000	–
Cc1nc(-c2ccccc2Cl)sc1[C@@H](NC(=O)C1CC(C(=O)Nc2ccc(F)c(Cl)c2)N(C)S(=O)(=O)N1)c1ccccc1 (single isomer, unassigned) [1100-ISOMER-B]	100 to 10000	–
Cc1nc(-c2ccccc2Cl)sc1[C@H](NC(=O)C1CC(C(=O)Nc2ccc(F)c(Cl)c2)N(C)S(=O)(=O)N1)c1ccccc1 (single isomer, unassigned) [1100-ISOMER-A]	< 50	–
CN1C(C(=O)Nc2ccc(F)c(Cl)c2)CC(C(=O)NCc2cnc(-c3ccc(C#CCN4CCCCC4)cc3)s2)NS1(=O)=O (single isomer, unassigned) [Compound 946-ISOMER-B, N3-(3-chloro-4-fluoro-phenyl)-2-methyl-1,1-dioxo-N5-[[2-[4-[3-(1-piperidyl)prop-1-ynyl]phenyl]thiazol-5-yl]methyl]-1,2,6-thiadiazinane-3,5-dicarboxamide]	–	100 to 10000
Cc1cn(-c2ccccc2)nc1CNC(=O)C1CC(C(=O)Nc2ccc(F)c(Cl)c2)N(C)S(=O)(=O)N1 (single isomer, unassigned) [1057-ISOMER-A, N3-(3-chloro-4-fluoro-phenyl)-2-methyl-N5-[(4-methyl-1-phenyl-pyrazol-3-yl)methyl]-1,1-dioxo-1,2,6-thiadiazinane-3,5-dicarboxamide]	< 50	–
N3-(3-chloro-4-fluoro-phenyl)-2-methyl-1,1-dioxo-N5-[(5-phenylisoxazol-3-yl)methyl]- [1149-ISOMER-B]	–	100 to 10000
CN1C(C(=O)Nc2ccc(F)c(Cl)c2)CC(C(=O)NCc2cn(-c3ccccc3)cn2)NS1(=O)=O (stereo not shown) [Compound 1145]	< 50	–
C[C@@H](NC(=O)C1CC(C(=O)Nc2ccc(F)c(Cl)c2)N(C)S(=O)(=O)N1)c1ccccc1 (stereo partly shown) [Compound 719]	< 50	–
Cc1ccccc1-c1nc(C)c(CNC(=O)C2CC(C(=O)Nc3ccc(F)c(Cl)c3)N(C)S(=O)(=O)N2)s1 (single isomer, unassigned) [1017-ISOMER-A, N3-(3-chloro-4-fluoro-phenyl)-2-methyl-N5-[[4-methyl-2-(o-tolyl)thiazol-5-yl]methyl]-1,1-dioxo-1,2,6-thiadiazinane-3,5-dicarboxamide]	< 50	–
Cc1nc(-c2ccc(OCCN3CCCCC3)cc2)sc1CNC(=O)C1CC(C(=O)Nc2ccc(F)c(Cl)c2)N(C)S(=O)(=O)N1 (single isomer, unassigned) [1087-ISOMER-B, N3-(3-chloro-4-fluoro-phenyl)-2-methyl-N5-[[4-methyl-2-[4-[2-(1-piperidyl)ethoxy]phenyl]thiazol-5-yl]methyl]-1,1-dioxo-1,2,6-thiadiazinane-3,5-dicarboxamide]	–	50 to 100
CN1C(C(=O)Nc2ccc(F)c(Cl)c2)CC(C(=O)NC2CCCc3nc(-c4ccccc4)sc32)NS1(=O)=O (stereo not shown) [Compound 917]	< 50	–
Cc1nc(CNC(=O)C2CC(C(=O)Nc3ccc(F)c(Cl)c3)N(C)S(=O)(=O)N2)sc1Br (stereo not shown) [Compound 1069]	< 50	–
CN1C(C(=O)Nc2ccc(F)c(Cl)c2)CC(C(=O)NCc2cc(-c3ccc(F)cc3)nn2C)NS1(=O)=O (stereo not shown) [Compound 1143]	< 50	–
CN1C(C(=O)Nc2ccc(F)c(Cl)c2)CC(C(=O)NCc2cnc(-c3ccc(C#CCN4CCCCC4)cc3)s2)NS1(=O)=O (stereo not shown) [Compound 946]	50 to 100	–
CN1C(C(=O)Nc2ccc(F)c(Cl)c2)CC(C(=O)NCc2ccccc2-n2ccnc2)NS1(=O)=O (stereo not shown) [Compound 910]	50 to 100	–
CN1C(C(=O)Nc2ccc(F)c(Cl)c2)CC(C(=O)NC2CCN(c3ccnc(Cl)c3)CC2)NS1(=O)=O (single isomer, unassigned) [1012-ISOMER-A, N3-(3-Chloro-4-fluoro-phenyl)-N5-[1-(2-chloro-4-pyridyl)-4-piperidyl]-2-methyl-1,1-dioxo-1,2,6-thiadiazinane-3,5-dicarboxamide]	< 50	–
CN1C(C(=O)Nc2ccc(F)c(Cl)c2)CC(C(=O)NCc2cc(-c3ccccc3Cl)no2)NS1(=O)=O (stereo not shown) [Compound 1025]	< 50	–

Compound	EC50 [1] [nM]	EC50 [nM]
Cc1cccc(CNC(=O)C2CC(C(=O)Nc3ccc(F)c(C#N)c3)N(C)S(=O)(=O)N2)n1 (stereo not shown) [Compound 831]	100 to 10000	–
Cc1c(CNC(=O)C2CC(C(=O)Nc3ccc(F)c(Cl)c3)N(C)S(=O)(=O)N2)noc1-c1ccccc1 (stereo not shown) [Compound 1150]	< 50	–
Cc1nc(Cl)sc1C(NC(=O)C1CC(C(=O)Nc2ccc(F)c(Cl)c2)N(C)S(=O)(=O)N1)c1ccccc1 (stereo not shown) [Compound 1098]	< 50	–
CN1C(C(=O)Nc2ccc(F)c(Cl)c2)CC(C(=O)NCc2ncc(-c3ccc(O)cc3)s2)NS1(=O)=O (stereo not shown) [Compound 1009]	< 50	–
CCN1C(C(=O)Nc2ccc(F)c(Cl)c2)CC(C(=O)NCc2cnc(C)s2)NS1(=O)=O (single isomer, unassigned) [Compound 888-ISOMER-A, N3-(3-chloro-4-fluoro-phenyl)-2-ethyl-N5-[(2-methylthiazol-5-yl)methyl]-1,1-dioxo-1,2,6-thiadiazinane-3,5-dicarboxamide]	100 to 10000	–
CCc1nc(CNC(=O)C2CC(C(=O)Nc3ccc(F)c(Cl)c3)N(C)S(=O)(=O)N2)cs1 (stereo not shown) [Compound 742]	50 to 100	–
CN1C(C(=O)Nc2ccc(F)c(Cl)c2)CC(C(=O)NCc2ccccc2-c2cn(C)cn2)NS1(=O)=O (single isomer, unassigned) [Compound 823-ISOMER-B, N3-(3-chloro-4-fluoro-phenyl)-2-methyl-N5-[[2-(1-methylimidazol-4-yl)phenyl]methyl]-1,1-dioxo-1,2,6-thiadiazinane-3,5-dicarboxamide]	100 to 10000	–
CN1C(C(=O)Nc2ccc(F)c(Cl)c2)CC(C(=O)NCc2cnc(-c3cccnc3)s2)NS1(=O)=O (stereo not shown) [Compound 911]	50 to 100	–
CN1C(C(=O)Nc2ccc(F)c(Cl)c2)CC(C(=O)NCc2cnc(Cl)s2)NS1(=O)=O (single isomer, unassigned) [1199-ISOMER-B, N3-(3-chloro-4-fluoro-phenyl)-N5-[(2-chlorothiazol-5-yl)methyl]-2-methyl-1,1-dioxo-1,2,6-thiadiazinane-3,5-dicarboxamide]	–	100 to 10000
CN1C(C(=O)Nc2ccc(F)c(Cl)c2)CC(C(=O)NC2CCN(c3cc(CN4CCCCC4)ccn3)CC2)NS1(=O)=O (stereo not shown) [Compound 975]	< 50	–
CN1C(C(=O)Nc2ccc(F)c(Cl)c2)CC(C(=O)NCc2cnc(-c3ccc(OCCN4CCCCC4)cc3)s2)NS1(=O)=O (stereo not shown) [Compound 922]	< 50	–
CN1C(C(=O)Nc2ccc(F)c(Cl)c2)CC(C(=O)NCc2cnc(-c3ccc(O)cc3)s2)NS1(=O)=O (stereo not shown) [Compound 924]	< 50	–
CN1C(C(=O)Nc2ccc(F)c(Cl)c2)CC(C(=O)NCc2cc(-c3ccccc3Cl)no2)NS1(=O)=O (single isomer, unassigned; isomer-a) [1025-ISOMER-A, N3-(3-chloro-4-fluro-phenyl)-N5-[[3-(2-chlorophenyl)isoxazol-5-yl]methyl]-2-methyl-1,1-dioxo-1,2,6-thiadiazinane-3,5-dicarboxamide]	–	< 50
CN1C(C(=O)Nc2ccc(F)c(Cl)c2)CC(C(=O)NC2CC2c2ccccc2)NS1(=O)=O (stereo not shown) [Compound 476]	50 to 100	–
CN1C(C(=O)Nc2ccc(F)c(Cl)c2)CC(C(=O)NCc2ccc(Cl)cc2)NS1(=O)=O (single isomer, unassigned) [Compound 729-ISOMER-A, N3-(3-chloro-4-fluoro-phenyl)-N5-[(4-chlorophenyl)methyl]-2-methyl-1,1-dioxo-1,2,6-thiadiazinane-3,5-dicarboxamide]	< 50	–
CN1C(C(=O)Nc2ccc(F)c(Cl)c2)CC(C(=O)Nc2cccc3cnccc23)NS1(=O)=O (stereo not shown) [Compound 485]	< 50	–
CN1C(C(=O)N(Cc2cnc(-c3cscn3)s2)c2ccc(F)c(Cl)c2)CC(C(N)=O)NS1(=O)=O (single isomer, unassigned) [Compound 929-ISOMER-A, N3-(3-chloro-4-fluoro-phenyl)-2-methyl-1,1-dioxo-N-[(2-thiazol-4-ylthiazol-5-yl)methyl]-1,2,6-thiadiazinane-3,5-dicarboxamide]	100 to 10000	–
Cc1cc(CNC(=O)C2CC(C(=O)Nc3ccc(F)c(Cl)c3)N(C)S(=O)(=O)N2)n(C)n1 (stereo not shown) [Compound 482]	< 50	–
CN1C(C(=O)Nc2ccc(F)c(Cl)c2)CC(C(=O)NCc2cc(-c3ccc(F)cc3)n(C)n2)NS1(=O)=O (stereo not shown) [Compound 1151]	< 50	–
Cc1ncc(CNC(=O)C2CC(C(=O)Nc3ccc(F)c(Cl)c3)N(CC(F)(F)F)S(=O)(=O)N2)s1 (stereo not shown) [Compound 891]	100 to 10000	–
